Reference: PMC11496704, “Synthesis and cytotoxicity studies of novel N-arylbenzo[h]quinazolin-2-amines” (Beilstein Journal of Organic Chemistry, 2024)

system: HuH-7; assay: Cytotoxicity secondary screen (IC50); type: cell-based; conditions: Homo sapiens, 48 h exposure, mean of triplicates, NE: no effect
Experimental: (§1) Cell culture. Skin normal fibroblastic cells are purchased from Lonza (Basel, Switzerland), HuH-7, Caco-2, MDA-MB-231, HCT-116, PC3, MCF7 and NCI-H727 cancer cell lines were obtained from ATCC (American Type Culture Collection). Cells are grown at 37 °C, 5% CO2 in ATCC recommended media: DMEM for HuH-7, MDA-MB-231, MDA-MB-468 and fibroblast, EMEM for MCF7 and CaCo-2, McCoy’s for HCT-116 and RPMI for PC3 and NCI-H727. All culture media are supplemented by 10% of FBS, 1% of penicillin-streptomycin and 2 mM glutamine.
(§2) Both studies have been performed following the protocols described in a previous paper, see ref. [2].

Structure (SMILES) | IC50
c1ccc(Nc2ncc3ccc4ccccc4c3n2)cc1 [Compound 4a, N-phenylbenzo[h]quinazolin-2-amine] | 1.7 µM
Cc1ccc(Nc2ncc3ccc4ccccc4c3n2)cc1 [Compound 4d, N-(p-tolyl)benzo[h]quinazolin-2-amine] | > 25 µM
COc1ccccc1Nc1ncc2ccc3ccccc3c2n1 [Compound 4e, N-(2-methoxyphenyl)benzo[h]quinazolin-2-amine] | > 25 µM
COc1cccc(Nc2ncc3ccc4ccccc4c3n2)c1 [Compound 4f, N-(3-methoxyphenyl)benzo[h]quinazolin-2-amine] | 23 µM
Fc1ccccc1Nc1ncc2ccc3ccccc3c2n1 [Compound 4h, N-(2-fluorophenyl)benzo[h]quinazolin-2-amine] | > 25 µM

system: PC3; assay: Cytotoxicity secondary screen (IC50); type: cell-based; conditions: Homo sapiens, PC-3; 48 h exposure, mean of triplicates; NE: no effect
Experimental: as §1, §2

Structure (SMILES) | IC50
c1ccc(Nc2ncc3ccc4ccccc4c3n2)cc1 [Compound 4a, N-phenylbenzo[h]quinazolin-2-amine] | 34.5 µM
Cc1ccc(Nc2ncc3ccc4ccccc4c3n2)cc1 [Compound 4d, N-(p-tolyl)benzo[h]quinazolin-2-amine] | 30 µM
COc1ccccc1Nc1ncc2ccc3ccccc3c2n1 [Compound 4e, N-(2-methoxyphenyl)benzo[h]quinazolin-2-amine] | > 25 µM
COc1cccc(Nc2ncc3ccc4ccccc4c3n2)c1 [Compound 4f, N-(3-methoxyphenyl)benzo[h]quinazolin-2-amine] | 26 µM
Fc1ccccc1Nc1ncc2ccc3ccccc3c2n1 [Compound 4h, N-(2-fluorophenyl)benzo[h]quinazolin-2-amine] | > 25 µM

system: normal human fibroblasts; assay: Cytotoxicity secondary screen (IC50); type: cell-based; conditions: Fibroblast, 48 h exposure, mean of triplicates, NE: no effect, highest concentration tested 25 μM, read-out: IC50 Fibro
Experimental: as §1, §2

Structure (SMILES) | IC50
c1ccc(Nc2ncc3ccc4ccccc4c3n2)cc1 [Compound 4a, N-phenylbenzo[h]quinazolin-2-amine] | > 25 µM
Cc1ccc(Nc2ncc3ccc4ccccc4c3n2)cc1 [Compound 4d, N-(p-tolyl)benzo[h]quinazolin-2-amine] | > 25 µM
COc1ccccc1Nc1ncc2ccc3ccccc3c2n1 [Compound 4e, N-(2-methoxyphenyl)benzo[h]quinazolin-2-amine] | > 25 µM
COc1cccc(Nc2ncc3ccc4ccccc4c3n2)c1 [Compound 4f, N-(3-methoxyphenyl)benzo[h]quinazolin-2-amine] | > 25 µM
Fc1ccccc1Nc1ncc2ccc3ccccc3c2n1 [Compound 4h, N-(2-fluorophenyl)benzo[h]quinazolin-2-amine] | > 25 µM

system: Caco-2; assay: Cytotoxicity secondary screen (IC50); type: cell-based; conditions: Homo sapiens, 48 h exposure, mean of triplicates, NE: no effect
Experimental: (§3) Next, we performed a cytotoxicity screening of the nineteen molecules 4a–s, at 25 μM, investigating seven representative cancer cell lines: hepatocellular carcinoma HuH-7, colorectal adenocarcinoma CaCo-2, breast carcinoma MDA-MB-231 and MDA-MB-468, colorectal carcinoma HCT-116, prostate carcinoma PC3 and breast carcinoma MCF7. […] For details see: ref. [2] and Supporting Information File 1, Table S1.
as §1, §2

Structure (SMILES) | IC50
c1ccc(Nc2ncc3ccc4ccccc4c3n2)cc1 [Compound 4a, N-phenylbenzo[h]quinazolin-2-amine] | 4.7 µM
Cc1ccc(Nc2ncc3ccc4ccccc4c3n2)cc1 [Compound 4d, N-(p-tolyl)benzo[h]quinazolin-2-amine] | > 25 µM
COc1ccccc1Nc1ncc2ccc3ccccc3c2n1 [Compound 4e, N-(2-methoxyphenyl)benzo[h]quinazolin-2-amine] | 20 µM
COc1cccc(Nc2ncc3ccc4ccccc4c3n2)c1 [Compound 4f, N-(3-methoxyphenyl)benzo[h]quinazolin-2-amine] | 4.3 µM
Fc1ccccc1Nc1ncc2ccc3ccccc3c2n1 [Compound 4h, N-(2-fluorophenyl)benzo[h]quinazolin-2-amine] | 4.6 µM

system: HCT-116; assay: Cytotoxicity secondary screen (IC50); type: cell-based; conditions: Homo sapiens, 48 h exposure, mean of triplicates, NE: no effect
Experimental: as §3, §1, §2

Structure (SMILES) | IC50
c1ccc(Nc2ncc3ccc4ccccc4c3n2)cc1 [Compound 4a, N-phenylbenzo[h]quinazolin-2-amine] | 4 µM
Cc1ccc(Nc2ncc3ccc4ccccc4c3n2)cc1 [Compound 4d, N-(p-tolyl)benzo[h]quinazolin-2-amine] | 5 µM
COc1ccccc1Nc1ncc2ccc3ccccc3c2n1 [Compound 4e, N-(2-methoxyphenyl)benzo[h]quinazolin-2-amine] | 26 µM
COc1cccc(Nc2ncc3ccc4ccccc4c3n2)c1 [Compound 4f, N-(3-methoxyphenyl)benzo[h]quinazolin-2-amine] | 10 µM
Fc1ccccc1Nc1ncc2ccc3ccccc3c2n1 [Compound 4h, N-(2-fluorophenyl)benzo[h]quinazolin-2-amine] | > 25 µM

system: Caco-2; assay: Cytotoxicity primary screen (single dose); type: cell-based; conditions: single dose 25 μM, 48 h exposure, mean of triplicates
Experimental: as §3, §1, §2
(§4) Table S1: Cytotoxicity studies (single dose at 25µM) of N-arylbenzo[h]quinazolin-2-amines 4a–s
(§5) The toxicity is expressed as the percentage of cell survival (from 100 % to 0 %) over DMSO control after 48 h exposure (mean of triplicates).
(§6) Effect of the solvent (DMSO) was studied at 0.25%.

Structure (SMILES) | percentage of cell survival over DMSO control, CaCo-2
c1ccc(Nc2ncc3ccc4ccccc4c3n2)cc1 [Compound 4a, N-phenylbenzo[h]quinazolin-2-amine] | 33%
Cc1ccc(Nc2ncc3ccc4ccccc4c3n2)cc1 [Compound 4d, N-(p-tolyl)benzo[h]quinazolin-2-amine] | 63%
COc1ccccc1Nc1ncc2ccc3ccccc3c2n1 [Compound 4e, N-(2-methoxyphenyl)benzo[h]quinazolin-2-amine] | 59%
COc1cccc(Nc2ncc3ccc4ccccc4c3n2)c1 [Compound 4f, N-(3-methoxyphenyl)benzo[h]quinazolin-2-amine] | 59%
Fc1ccccc1Nc1ncc2ccc3ccccc3c2n1 [Compound 4h, N-(2-fluorophenyl)benzo[h]quinazolin-2-amine] | 48%

system: HuH7; assay: Cytotoxicity primary screen (single dose); type: cell-based; conditions: Homo sapiens, Huh-7; single dose 25 μM, 48 h exposure, mean of triplicates; read-out: percentage of cell survival over DMSO control, HuH7
Experimental: as §3, §1, §2, §4, §5, §6

Structure (SMILES) | viability at 25 µM
c1ccc(Nc2ncc3ccc4ccccc4c3n2)cc1 [Compound 4a, N-phenylbenzo[h]quinazolin-2-amine] | 60%
Cc1ccc(Nc2ncc3ccc4ccccc4c3n2)cc1 [Compound 4d, N-(p-tolyl)benzo[h]quinazolin-2-amine] | 85%
COc1ccccc1Nc1ncc2ccc3ccccc3c2n1 [Compound 4e, N-(2-methoxyphenyl)benzo[h]quinazolin-2-amine] | 55%
COc1cccc(Nc2ncc3ccc4ccccc4c3n2)c1 [Compound 4f, N-(3-methoxyphenyl)benzo[h]quinazolin-2-amine] | 59%
Fc1ccccc1Nc1ncc2ccc3ccccc3c2n1 [Compound 4h, N-(2-fluorophenyl)benzo[h]quinazolin-2-amine] | 81%

system: HCT116; assay: Cytotoxicity primary screen (single dose); type: cell-based; conditions: Homo sapiens, HCT-116; single dose 25 μM, 48 h exposure, mean of triplicates; read-out: percentage of cell survival over DMSO control, HCT116
Experimental: as §3, §1, §2, §4, §5, §6

Structure (SMILES) | viability at 25 µM
c1ccc(Nc2ncc3ccc4ccccc4c3n2)cc1 [Compound 4a, N-phenylbenzo[h]quinazolin-2-amine] | 48%
Cc1ccc(Nc2ncc3ccc4ccccc4c3n2)cc1 [Compound 4d, N-(p-tolyl)benzo[h]quinazolin-2-amine] | 54%
COc1ccccc1Nc1ncc2ccc3ccccc3c2n1 [Compound 4e, N-(2-methoxyphenyl)benzo[h]quinazolin-2-amine] | 8%
COc1cccc(Nc2ncc3ccc4ccccc4c3n2)c1 [Compound 4f, N-(3-methoxyphenyl)benzo[h]quinazolin-2-amine] | 29%
Fc1ccccc1Nc1ncc2ccc3ccccc3c2n1 [Compound 4h, N-(2-fluorophenyl)benzo[h]quinazolin-2-amine] | 82%

system: MCF7; assay: Cytotoxicity primary screen (single dose); type: cell-based; conditions: Homo sapiens, single dose 25 μM, 48 h exposure, mean of triplicates, read-out: percentage of cell survival over DMSO control, MCF7
Experimental: as §3, §1, §2, §4, §5, §6

Structure (SMILES) | viability at 25 µM
c1ccc(Nc2ncc3ccc4ccccc4c3n2)cc1 [Compound 4a, N-phenylbenzo[h]quinazolin-2-amine] | 59%
Cc1ccc(Nc2ncc3ccc4ccccc4c3n2)cc1 [Compound 4d, N-(p-tolyl)benzo[h]quinazolin-2-amine] | 61%
COc1ccccc1Nc1ncc2ccc3ccccc3c2n1 [Compound 4e, N-(2-methoxyphenyl)benzo[h]quinazolin-2-amine] | 82%
COc1cccc(Nc2ncc3ccc4ccccc4c3n2)c1 [Compound 4f, N-(3-methoxyphenyl)benzo[h]quinazolin-2-amine] | 78%
Fc1ccccc1Nc1ncc2ccc3ccccc3c2n1 [Compound 4h, N-(2-fluorophenyl)benzo[h]quinazolin-2-amine] | 83%

system: MDA231; assay: Cytotoxicity primary screen (single dose); type: cell-based; conditions: Homo sapiens, MDA-MB-231; single dose 25 μM, 48 h exposure, mean of triplicates; read-out: percentage of cell survival over DMSO control, MDA231
Experimental: as §3, §1, §2, §4, §5, §6

Structure (SMILES) | viability at 25 µM
c1ccc(Nc2ncc3ccc4ccccc4c3n2)cc1 [Compound 4a, N-phenylbenzo[h]quinazolin-2-amine] | 61%
Cc1ccc(Nc2ncc3ccc4ccccc4c3n2)cc1 [Compound 4d, N-(p-tolyl)benzo[h]quinazolin-2-amine] | 67%
COc1ccccc1Nc1ncc2ccc3ccccc3c2n1 [Compound 4e, N-(2-methoxyphenyl)benzo[h]quinazolin-2-amine] | 40%
COc1cccc(Nc2ncc3ccc4ccccc4c3n2)c1 [Compound 4f, N-(3-methoxyphenyl)benzo[h]quinazolin-2-amine] | 77%
Fc1ccccc1Nc1ncc2ccc3ccccc3c2n1 [Compound 4h, N-(2-fluorophenyl)benzo[h]quinazolin-2-amine] | 83%

system: MDA468; assay: Cytotoxicity primary screen (single dose); type: cell-based; conditions: single dose 25 μM, 48 h exposure, mean of triplicates; read-out: percentage of cell survival over DMSO control, MDA468
Experimental: as §3, §1, §2, §4, §5, §6

Structure (SMILES) | viability at 25 µM
c1ccc(Nc2ncc3ccc4ccccc4c3n2)cc1 [Compound 4a, N-phenylbenzo[h]quinazolin-2-amine] | 56%
Cc1ccc(Nc2ncc3ccc4ccccc4c3n2)cc1 [Compound 4d, N-(p-tolyl)benzo[h]quinazolin-2-amine] | 72%
COc1ccccc1Nc1ncc2ccc3ccccc3c2n1 [Compound 4e, N-(2-methoxyphenyl)benzo[h]quinazolin-2-amine] | 46%
COc1cccc(Nc2ncc3ccc4ccccc4c3n2)c1 [Compound 4f, N-(3-methoxyphenyl)benzo[h]quinazolin-2-amine] | 73%
Fc1ccccc1Nc1ncc2ccc3ccccc3c2n1 [Compound 4h, N-(2-fluorophenyl)benzo[h]quinazolin-2-amine] | 94%

system: PC3; assay: Cytotoxicity primary screen (single dose); type: cell-based; conditions: Homo sapiens, PC-3; single dose 25 μM, 48 h exposure, mean of triplicates; read-out: percentage of cell survival over DMSO control, PC3
Experimental: as §3, §1, §2, §4, §5, §6

Structure (SMILES) | viability at 25 µM
c1ccc(Nc2ncc3ccc4ccccc4c3n2)cc1 [Compound 4a, N-phenylbenzo[h]quinazolin-2-amine] | 58%
Cc1ccc(Nc2ncc3ccc4ccccc4c3n2)cc1 [Compound 4d, N-(p-tolyl)benzo[h]quinazolin-2-amine] | 65%
COc1ccccc1Nc1ncc2ccc3ccccc3c2n1 [Compound 4e, N-(2-methoxyphenyl)benzo[h]quinazolin-2-amine] | 21%
COc1cccc(Nc2ncc3ccc4ccccc4c3n2)c1 [Compound 4f, N-(3-methoxyphenyl)benzo[h]quinazolin-2-amine] | 54%
Fc1ccccc1Nc1ncc2ccc3ccccc3c2n1 [Compound 4h, N-(2-fluorophenyl)benzo[h]quinazolin-2-amine] | 74%

system: seven representative tumor cell lines; assay: Cytotoxicity IC50, summary over several cell lines; type: cell-based; conditions: against HuH-7, Caco-2, MDA-MB-468 and HCT-116 cells; read-out: IC50 (span over cell lines)
Experimental: as §1, with “For details see: ref. [2] and Supporting Information File 1, Table S1. […] [table] Cell culture.” for “Cell culture.”, “mM glutamine. Both studies have been performed following the protocols described in a previous paper, see ref. [2].” for “mM glutamine.”

Structure (SMILES) | IC50
c1ccc(Nc2ncc3ccc4ccccc4c3n2)cc1 [Compound 4a, N-phenylbenzo[h]quinazolin-2-amine] | 1.7 to 6 µM

system: MDA-MB-231; assay: Cytotoxicity secondary screen (IC50); type: cell-based; conditions: Homo sapiens, 48 h exposure, mean of triplicates, NE: no effect

Structure (SMILES) | IC50
c1ccc(Nc2ncc3ccc4ccccc4c3n2)cc1 [Compound 4a, N-phenylbenzo[h]quinazolin-2-amine] | 29 µM
Cc1ccc(Nc2ncc3ccc4ccccc4c3n2)cc1 [Compound 4d, N-(p-tolyl)benzo[h]quinazolin-2-amine] | > 25 µM
COc1ccccc1Nc1ncc2ccc3ccccc3c2n1 [Compound 4e, N-(2-methoxyphenyl)benzo[h]quinazolin-2-amine] | 25 µM
COc1cccc(Nc2ncc3ccc4ccccc4c3n2)c1 [Compound 4f, N-(3-methoxyphenyl)benzo[h]quinazolin-2-amine] | > 25 µM
Fc1ccccc1Nc1ncc2ccc3ccccc3c2n1 [Compound 4h, N-(2-fluorophenyl)benzo[h]quinazolin-2-amine] | > 25 µM

system: MDA-MB-468; assay: Cytotoxicity secondary screen (IC50); type: cell-based; conditions: Homo sapiens, 48 h exposure, mean of triplicates, NE: no effect

Structure (SMILES) | IC50
c1ccc(Nc2ncc3ccc4ccccc4c3n2)cc1 [Compound 4a, N-phenylbenzo[h]quinazolin-2-amine] | 6 µM
Cc1ccc(Nc2ncc3ccc4ccccc4c3n2)cc1 [Compound 4d, N-(p-tolyl)benzo[h]quinazolin-2-amine] | 31 µM
COc1ccccc1Nc1ncc2ccc3ccccc3c2n1 [Compound 4e, N-(2-methoxyphenyl)benzo[h]quinazolin-2-amine] | 25 µM
COc1cccc(Nc2ncc3ccc4ccccc4c3n2)c1 [Compound 4f, N-(3-methoxyphenyl)benzo[h]quinazolin-2-amine] | 33 µM
Fc1ccccc1Nc1ncc2ccc3ccccc3c2n1 [Compound 4h, N-(2-fluorophenyl)benzo[h]quinazolin-2-amine] | > 25 µM

system: MCF7; assay: Cytotoxicity secondary screen (IC50); type: cell-based; conditions: Homo sapiens, 48 h exposure, mean of triplicates, NE: no effect

Structure (SMILES) | IC50
c1ccc(Nc2ncc3ccc4ccccc4c3n2)cc1 [Compound 4a, N-phenylbenzo[h]quinazolin-2-amine] | 13 µM
Cc1ccc(Nc2ncc3ccc4ccccc4c3n2)cc1 [Compound 4d, N-(p-tolyl)benzo[h]quinazolin-2-amine] | > 25 µM
COc1ccccc1Nc1ncc2ccc3ccccc3c2n1 [Compound 4e, N-(2-methoxyphenyl)benzo[h]quinazolin-2-amine] | 22 µM
COc1cccc(Nc2ncc3ccc4ccccc4c3n2)c1 [Compound 4f, N-(3-methoxyphenyl)benzo[h]quinazolin-2-amine] | > 25 µM
Fc1ccccc1Nc1ncc2ccc3ccccc3c2n1 [Compound 4h, N-(2-fluorophenyl)benzo[h]quinazolin-2-amine] | > 25 µM
